Measurements taken from publication PMC9972151, “Phase I study of plitidepsin in combination with bortezomib and dexamethasone in patients with relapsed/refractory multiple myeloma” (Cancer Medicine, 2022).
Several values for one entry are separate records, joined by “and”; a condition that tells them apart may be missing. Equal values may be shown once. Read-outs that look alike come from different tables or passages of the source. Each block holds one compound with its values, some of them ahead of it. Numbered stars: 1 amine (or outer) side, 2 acyl side, 3 side chain; on linkers, the order of the positions; unused ones are H or OH. Bridge positions count the residues as written; N and C are the ends. Square brackets hold non-standard residues; d marks the D form. Peptide text beside a SMILES is read from it. * marks the point of attachment. X1 = CC[C@H](C)[C@@H](N[*:1])[C@@H](O)CC(=O)O[C@H](C(=O)[C@H](C)C(=O)[*:2])C(C)C; NMeY = CN[C@@H](Cc1ccc(O)cc1)C(=O)O; dNMeL = CN[C@H](CC(C)C)C(=O)O; Pyruvoyl = CC(=O)C(=O)*

Key:
[1] = BTZ plasma pharmacokinetics, non-compartmental; type: in vivo, human; details: mean (SD); for C max: NCA, UPLC-MS/MS
Description: (§1) Sixteen samples were collected from each patient to quantify plitidepsin whole blood and BTZ plasma concentrations at baseline and at different times 1 week after the first infusion. In patients treated at the RD, 15 additional samples were taken 1 week after the second plitidepsin infusion.
(§2) Continuous variables were presented with summary statistics and categorical variables in frequency tables. Time‐to‐event variables were calculated using Kaplan–Meier approach. Binomial exact distribution was used to calculate 95% confidence intervals (95%CIs) for categorical variables. Individual PK parameters were tabulated. Statistical analyses were performed using SAS v.9.2, (SAS Institute Inc), and PK non‐compartmental analysis (NCA) was performed using Phoenix WinNonlin v.6.3.
Both drugs (plitidepsin and BTZ) were measured by validated liquid extraction methods followed by ultra-performance liquid chromatography tandem mass-spectrometry detection (Dynakin, Derio, Spain). The calibration range for plitidepsin and BTZ was 0.25-100 ng/mL, and 0.1-5 ng/mL, respectively.

[2] = design: method as in Moreau et al[25]; details: BTZ 1.3 mg/m^2 subcutaneously, reference study in MM patients; mean (SD), n = 10; ref Moreau et al[25]; cited from earlier work
MM [3] = details: phase III VISTA trial; single-agent BTZ re-treatment; cited from earlier work
Description: The feasibility of re‐treating MM patients with single‐agent bortezomib (BTZ) was first confirmed in the phase III VISTA trial,[8] where 47% of patients pre‐treated with BTZ‐based regimens during earlier phases of the disease responded again to the drug alone. This was further supported by the results of the phase II RETRIEVE and SUMMIT trials and the phase III APEX trial.[9], [10], [11]

MM [4] = details: cited from earlier work
Description: Results of the VISTA trial were further supported by those of phase II trials: RETRIEVE (ORR: 40%) and SUMMIT (ORR: 35%, including minimal response while on BTZ treatment), and of the phase III APEX trial (crossover from DXM to BTZ), in which the overall and complete response rates with BTZ were 43% and 9%, respectively.[9], [10], [11]

[5] = Plitidepsin whole blood pharmacokinetics, non-compartmental; type: in vivo; details: human, iv, mean (SD); for Cmax: NCA, UPLC-MS/MS
Description: as §1, §2
Both drugs (plitidepsin and BTZ) were measured by validated liquid extraction methods followed by ultra-performance liquid chromatography tandem mass-spectrometry detection (Dynakin, Derio, Spain). The calibration range for plitidepsin and BTZ was 0.25-100 ng/mL, and 0.1-5 ng/mL, respectively. The reference for plitidepsin PK results was a population-PK model of plitidepsin (data from 303 patients treated in seven phase II studies and one phase III study), which was used to simulate exposure in whole blood after one 3-hour i.v. infusion of 5.0 mg/m² of plitidepsin in patients with similar characteristics compared to those treated in this study (unpublished data). The reference for BTZ PK results was a phase I study in patients with MM (see Moreau et al (25)).

[6] = patients with MM treated with plitidepsin in other trials; ref unpublished data; cited from earlier work
Description: The plitidepsin concentrations found in this study fitted within the 90% prediction interval simulated for patients with MM, although most were above the 50th pe ...

[7] = system: MM cell lines and primary MM cells; details: cited from earlier work
Description: The positive results observed with plitidepsin and BTZ against MM (both as single agents and in combination with DXM), their different mechanisms of action, and the potential synergism of the triple combination warranted the exploration of the efficacy of plitidepsin plus BTZ and DXM in a clinical trial in patients with relapsed and/or refractory MM.

MM [8] = system: MM; design: method as in PMID 23950178, PMID 28642620, PMID 24429336, PMID 28847998, PMID 27091875; details: named drug in a BTZ and DXM-containing combination; cited from earlier work
[9] = Dose level 1 4.0/1.0/40.0, Day 1 of Cycle 1, NCA, n = 6
[10] = Dose level 2 4.0/1.3/40.0, Day 1 of Cycle 1, NCA, n = 3
[11] = Dose level 3 (RD cohort) 5.0/1.3/40.0, Day 1 of Cycle 1, NCA, n = 9
[12] = phase III APEX trial (crossover from DXM to BTZ)

AUC (time zero to infinity) [1, 9]: 77.7 (17.9) h*μg/L
CL/F (total clearance after extravascular administration) [1, 9]: 23.4 (6.79) L/h
HL (terminal half-life) [1, 9]: 39.1 (9.22) h
V z /F (apparent volume of distribution during terminal phase after extravascular administration) [1, 9]: 1308 (431) L
C max ([1]; Dose level 1 4.0/1.0/40.0, Day 1 of Cycle 1, subcutaneous bolus, n = 6): 11.0 (7.71) μg/L
AUC (time zero to infinity) [1, 10]: 134 (46.8) h*μg/L
CL/F (total clearance after extravascular administration) [1, 10]: 17.9 (6.03) L/h
HL (terminal half-life) [1, 10]: 51.5 (41.4) h
V z /F (apparent volume of distribution during terminal phase after extravascular administration) [1, 10]: 1208 (52.4) L
C max ([1]; Dose level 2 4.0/1.3/40.0, Day 1 of Cycle 1, subcutaneous bolus, n = 3): 16.9 (4.21) μg/L
AUC (time zero to infinity) [1, 11]: 138 (88.6) h*μg/L
CL/F (total clearance after extravascular administration) [1, 11]: 24.9 (19.2) L/h
HL (terminal half-life) [1, 11]: 49.0 (17.8) h
V z /F (apparent volume of distribution during terminal phase after extravascular administration) [1, 11]: 1658 (1457) L
C max ([1]; Dose level 3 (RD cohort) 5.0/1.3/40.0, Day 1 of Cycle 1, subcutaneous bolus, n = 9): 17.0 (8.87) μg/L
Compound: CC(C)C[C@H](NC(=O)[C@H](Cc1ccccc1)NC(=O)c1cnccn1)B(O)O [BTZ, bortezomib]
AUC (time zero to infinity) [2]: 151 (53.5) h*μg/L
C max [2]: 16.5 μg/L and 16.5 (8.4) μg/L
CL/F (total clearance after extravascular administration) [2]: 16.6 L/h and 16.6 (5.8) L/h
HL (terminal half-life) [2]: 65.7 (46.5) h
V z /F (apparent volume of distribution during terminal phase after extravascular administration) [2]: 1330 L and 1330 (578) L
Patients pre-treated with BTZ-based regimens who responded again to the drug alone (MM [3]): 47%
ORR (MM [4]; phase II RETRIEVE trial): 40%
ORR (MM [4]; phase II SUMMIT trial, including minimal response while on BTZ treatment): 35%
Complete response rate (MM [4]; [12]): 9%
Overall response rate (MM [4]; [12]): 43%

Compound: CC[C@H](C)[C@H]1NC(=O)[C@@H](NC(=O)[C@@H](CC(C)C)N(C)C(=O)[C@@H]2CCCN2C(=O)C(C)=O)[C@@H](C)OC(=O)[C@H](Cc2ccc(OC)cc2)N(C)C(=O)[C@@H]2CCCN2C(=O)[C@H](CC(C)C)NC(=O)[C@@H](C)C(=O)[C@H](C(C)C)OC(=O)C[C@@H]1O [Plitidepsin, plitidepsin] (Pyruvoyl-P[dNMeL]T[X1]LP[NMeY](Me); ester 3-C (inferred); N-terminus assumed)
Cmax ([5]; Dose level 1 4.0/1.0/40.0, Day 1 of Cycle 1, 3-h i.v. infusion, n = 5): 83.8 ng/mL
AUC(0-inf) ([5]; Dose level 1 4.0/1.0/40.0, Day 1 of Cycle 1, NCA, n = 5, read-out: AUC (time zero to infinity)): 1260 ng·h/mL
clearance ([5]; Dose level 1 4.0/1.0/40.0, Day 1 of Cycle 1, NCA, n = 5, read-out: CL (total clearance) (converted)): 94.5 mL/min
half-life ([5]; Dose level 1 4.0/1.0/40.0, Day 1 of Cycle 1, NCA, n = 5, read-out: HL (terminal half-life) (converted)): 40.1 h
Vd ([5]; Dose level 1 4.0/1.0/40.0, Day 1 of Cycle 1, NCA, n = 5, read-out: V ss (volume of distribution at steady-state)): 169 L
Vd ([5]; Dose level 1 4.0/1.0/40.0, Day 1 of Cycle 1, NCA, n = 5, read-out: V z (apparent volume of distribution during terminal phase)): 185 L
Cmax ([5]; Dose level 2 4.0/1.3/40.0, Day 1 of Cycle 1, 3-h i.v. infusion, n = 3): 117 ng/mL
AUC(0-inf) ([5]; Dose level 2 4.0/1.3/40.0, Day 1 of Cycle 1, NCA, n = 3, read-out: AUC (time zero to infinity)): 1420 ng·h/mL
clearance ([5]; Dose level 2 4.0/1.3/40.0, Day 1 of Cycle 1, NCA, n = 3, read-out: CL (total clearance) (converted)): 93.2 mL/min
half-life ([5]; Dose level 2 4.0/1.3/40.0, Day 1 of Cycle 1, NCA, n = 3, read-out: HL (terminal half-life) (converted)): 46.2 h
Vd ([5]; Dose level 2 4.0/1.3/40.0, Day 1 of Cycle 1, NCA, n = 3, read-out: V ss (volume of distribution at steady-state)): 192 L
Vd ([5]; Dose level 2 4.0/1.3/40.0, Day 1 of Cycle 1, NCA, n = 3, read-out: V z (apparent volume of distribution during terminal phase)): 394 L
Cmax ([5]; Dose level 3 (RD cohort) 5.0/1.3/40.0, Day 1 of Cycle 1, 3-h i.v. infusion, n = 9): 71.7 ng/mL
AUC(0-inf) ([5]; Dose level 3 (RD cohort) 5.0/1.3/40.0, Day 1 of Cycle 1, NCA, n = 9, read-out: AUC (time zero to infinity)): 1060 ng·h/mL
clearance ([5]; Dose level 3 (RD cohort) 5.0/1.3/40.0, Day 1 of Cycle 1, NCA, n = 9, read-out: CL (total clearance) (converted)): 157 mL/min
half-life ([5]; Dose level 3 (RD cohort) 5.0/1.3/40.0, Day 1 of Cycle 1, NCA, n = 9, read-out: HL (terminal half-life) (converted)): 44.6 h
Vd ([5]; Dose level 3 (RD cohort) 5.0/1.3/40.0, Day 1 of Cycle 1, NCA, n = 9, read-out: V ss (volume of distribution at steady-state)): 341 L
Vd ([5]; Dose level 3 (RD cohort) 5.0/1.3/40.0, Day 1 of Cycle 1, NCA, n = 9, read-out: V z (apparent volume of distribution during terminal phase)): 671 L
Median CL [6]: 4.4 L/h
Median peripheral volume [6]: 513 L
In vitro activity of the combination of plitidepsin with BTZ or DXM [7]: synergistic activity

Compound: Nc1cccc2c1CN(C1CCC(=O)NC1=O)C2=O (stereo not drawn) [lenalidomide]
Median DoR (MM [8]): 8.7 months

Compound: Cc1[nH]c2ccccc2c1CCNCc1ccc(/C=C/C(=O)NO)cc1 [panobinostat]
Median DoR (MM [8]): 6.0 months

Compound: Nc1cccc2c1C(=O)N(C1CCC(=O)NC1=O)C2=O (stereo not drawn) [pomalidomide]
Median DoR (MM [8]): 7.4 months

Compound: CC1(C)CCC(CN2CCN(c3ccc(C(=O)NS(=O)(=O)c4ccc(NCC5CCOCC5)c([N+](=O)[O-])c4)c(Oc4cnc5[nH]ccc5c4)c3)CC2)=C(c2ccc(Cl)cc2)C1 [venetoclax]
Median DoR (MM [8]): 9.7 months

Compound: elotuzumab
Median DoR (MM [8]): 11.4 months
